“Also recorded” adds a separate entry of the source. Marks after values point to notes of the source that are not given here.
Columns and labels:
HSV-1 = assay type: in vivo, Kunming mice; conditions: n 15
[1] = tested on: Mycoplasma pneumoniae (ATCCFH15531); assay type: in vivo, BALB/C mice
Pseudomonas aeruginosa = assay type: in vivo, BAL B/C male mice; conditions: 14 days
PR8 influenza virus = conditions: mouse, in vivo
influenza = conditions: human, in vivo
iNOS = assay type: cell-based, Mouse
Streptococcus pneumoniae = assay type: in vivo, ICR mice; conditions: n = 10
Staphylococcus aureus = assay type: in vivo, ICR mice; conditions: n = 10

## Nc1nc2c(ncn2COCCO)c(=O)[nH]1 [Acyclovir, acyclovir]
HSV-1
  Mortality: 60%
  Number of deaths, 48 h: 0
  Number of deaths, D4: 4
  Number of deaths, D7: 5

## CC[C@H]1OC(=O)[C@H](C)[C@@H](O[C@H]2C[C@@](C)(OC)[C@@H](O)[C@H](C)O2)[C@H](C)[C@@H](O[C@@H]2O[C@H](C)C[C@H](N(C)C)[C@H]2O)[C@](C)(O)C[C@@H](C)CN(C)[C@H](C)[C@@H](O)[C@]1(C)O [azithromycin]
[1]; 10 days
  Histopathological examination of the lung tissue: Mild interstitial pneumonia
[1]; mouse, in vivo
  Splenic index: 4.515 ± 0.982 mg/g
  Thymic index: 3.818 ± 1.232 mg/g

## penicillin
Pseudomonas aeruginosa
  survival of mice infected with the fatal dose of Pseudomonas aeruginosa: all the mice in the penicillin group died

## 6S-5-methyltetrahydrofolate calcium
PR8 influenza virus
  condition of the administration group (body weight, body temperature, food intake, water intake, survival curves): greatly improved
TNF-α, IL-1α, IL-6
  expression of macrophages and inflammatory factors induced by LPS: no significant effect
influenza
  Mean disappearance time: Cough: 35.7 h
  Mean disappearance time: Dizziness and fullness in head: 28.5 h
  Mean disappearance time: Dry and itchy throat: 15.0 h
  Mean disappearance time: Fatigue: 14.1 h
  Mean disappearance time: Headache: 13.7 h
  Mean disappearance time: Inappetence: 13.0 h
  Mean disappearance time: Intolerance of cold and cold limbs: 10.0 h
  Mean disappearance time: Low fever: 10.0 h
  Mean disappearance time: Muscular soreness: 14.9 h
  Mean disappearance time: Nasal stuffiness: 23.0 h
  Mean disappearance time: Running nose: 20.6 h
  Mean disappearance time: Sneezing: 18.1 h
  Mean disappearance time: Sore throat: 29.4 h
  Mean time: Basic rehabilitation: 27.4 h
  Mean time: Complete rehabilitation: 32.9 h
  disappearance time of symptoms: Dry and itchy throat: 15 h
  disappearance time of symptoms: Inappetence: 13 h
  disappearance time of symptoms: Intolerance of cold and cold limbs: 10 h
  disappearance time of symptoms: Low fever: 10 h
  time in which the patients' influenza almost all healed: ≤ 2 days
Macrophage RAW264.7
  secretion of NO in macrophages: promote the secretion of NO
iNOS
  expression of iNOS in macrophages induced by LPS: did not affect expression of iNOS; also recorded: almost no effect

## NC(=O)c1ccc[n+]([C@@H]2O[C@H](COP(=O)([O-])O)[C@@H](O)[C@H]2O)c1 [NMN, nicotinamide mononucleotide]
iNOS
  expression of iNOS in macrophages induced by LPS: did not affect expression of iNOS; also recorded: almost no effect

## O=C1O[C@H]([C@@H](O)CO)C(=O)C1=O [dehydroascorbic acid]
iNOS
  expression of iNOS in macrophages induced by LPS: almost no effect

## CC1(C)S[C@@H]2[C@H](NC(=O)[C@H](N)c3ccc(O)cc3)C(=O)N2[C@H]1C(=O)O [Amoxicillin, amoxicillin]
Streptococcus pneumoniae
  Survival rate, Streptococcus pneumoniae: 50* %
Staphylococcus aureus
  Survival rate, Staphylococcus aureus: 70** %

## C[C@@H](O)[C@H]1C(=O)N2C(C(=O)O)=C(S[C@@H]3CN[C@H](C(=O)N(C)C)C3)[C@H](C)[C@H]12 [meropenem]
Pseudomonas aeruginosa
  survival of mice infected with the fatal dose of Pseudomonas aeruginosa: 100%

## N[C@@H](CCC(=O)N[C@@H](CS)C(=O)NCC(=O)O)C(=O)O [glutathione, reference compound]
iNOS
  expression of iNOS in macrophages induced by LPS: did not affect expression of iNOS; also recorded: almost no effect
